Data reported in ChEMBL document CHEMBL3763138, “Synthesis and bioactivity of novel triazole incorporated benzothiazinone derivatives as antitubercular and antioxidant agent” (Bioorg Med Chem Lett, 2016).
Converted amounts (≈) assume the structure as drawn.

Key:
Conditions in all cases: ATCC 35743, 10 min
[1] = test system: Mycobacterium tuberculosis variant bovis BCG; experiment: Antitubercular activity against Mycobacterium bovis BCG ATCC 35743 after 10 mins by NR assay; format: functional, organism-based
[2] = test system: Mycobacterium tuberculosis variant bovis BCG; experiment: Antitubercular activity against Mycobacterium bovis BCG ATCC 35743 at 30 ug/ml after 10 mins by NR assay; format: functional
[3] = test system: Mycobacterium tuberculosis variant bovis BCG; experiment: Antitubercular activity against Mycobacterium bovis BCG ATCC 35743 at 10 ug/ml after 10 mins by NR assay; format: functional
[4] = test system: Mycobacterium tuberculosis variant bovis BCG; experiment: Antitubercular activity against Mycobacterium bovis BCG ATCC 35743 at 3 ug/ml after 10 mins by NR assay; format: functional

SMILES	IC50 [1]	MIC [1]	inhibition at 30 µg/mL [2]	inhibition at 10 µg/mL [3]	inhibition at 3 µg/mL [4]
O=C1CSc2ccccc2N1Cc1cn(Cc2ccc([N+](=O)[O-])cc2)nn1	7.89 µg/mL (≈ 20.7 µM)	29.4 µg/mL (≈ 77 µM)	91.1%	59.2%	28.3%
O=C1CSc2ccccc2N1Cc1cn(Cc2cccc(Cl)c2)nn1	18.6 µg/mL (≈ 50.1 µM)	28.4 µg/mL (≈ 76.7 µM)	95.5%	16.4%	3.3%
O=C1CSc2ccccc2N1Cc1cn(-c2ccc([N+](=O)[O-])cc2)nn1	> 30 µg/mL	> 30 µg/mL	33.1%	30.7%	15.9%
O=C1CSc2ccccc2N1Cc1cn(Cc2ccc(Br)cc2)nn1	> 30 µg/mL	> 30 µg/mL	43.9%	35.3%	58.8%
O=C1CSc2ccccc2N1Cc1cn(Cc2ccccc2Cl)nn1	> 30 µg/mL	> 30 µg/mL	58%	80.2%	32%
NNC(=O)c1ccncc1 [ISONIAZID]	0.0023 µg/mL (≈ 0.0168 µM)	0.045 µg/mL (≈ 0.328 µM)	–	–	–
O=C1CSc2ccccc2N1Cc1cn(Cc2cccc([N+](=O)[O-])c2)nn1	6.89 µg/mL (≈ 18.1 µM)	> 30 µg/mL	88.5%	62.2%	36.1%
CO[C@H]1/C=C/O[C@@]2(C)Oc3c(C)c(O)c4c(O)c(c(/C=N/N5CCN(C)CC5)c(O)c4c3C2=O)NC(=O)/C(C)=C\C=C\[C@H](C)[C@H](O)[C@@H](C)[C@@H](O)[C@@H](C)[C@H](OC(C)=O)[C@@H]1C [RIFAMPIN]	0.0016 µg/mL (≈ 0.00194 µM)	0.041 µg/mL (≈ 0.0498 µM)	–	–	–
O=C1CSc2ccccc2N1Cc1cn(Cc2ccccc2)nn1	19.8 µg/mL (≈ 58.7 µM)	> 30 µg/mL	74.3%	26.8%	1.1%
O=C1CSc2ccccc2N1Cc1cn(Cc2ccc(Cl)cc2)nn1	8.55 µg/mL (≈ 23.1 µM)	> 30 µg/mL	58.1%	55.2%	66.1%
O=C1CSc2ccccc2N1Cc1cn(-c2cccc([N+](=O)[O-])c2)nn1	> 30 µg/mL	> 30 µg/mL	26.6%	31.3%	39.3%
O=C1CSc2ccccc2N1Cc1cn(Cc2ccc(F)cc2)nn1	8.25 µg/mL (≈ 23.3 µM)	27.5 µg/mL (≈ 77.6 µM)	95.3%	52.9%	40.6%
